Key:
[1] = test system: primary AML graft; assay: Pilot in vivo dose study on primary AML graft, 2 weeks dosing; parameters: species or system NOD/SCID mice
Protocol: Intrafemoral Transplantation: One day prior to transplantation, NOD/SCID mice were preconditioned by sublethally irradiating (275 cGy) followed by injection with anti-CD122 antibody (200 μg/mouse) to deplete residual host natural killer (NK) cells. On the day of transplantation, viably frozen AML bulk cells (see Section 6.2.1.2) were thawed, counted, and transplanted intrafemorally into the preconditioned mice at a dose of 5×10^6 cells/mouse in a total volume of 30 μL phosphate buffered saline.
Cells harvested from injected and non-injected bone marrow were stained with mouse anti human antibodies as indicated in Section 6.2.1.3. After staining, washed cells were run on an LSRII flow cytometer (BD, USA) with 10,000 to 20,000 events collected for each sample. Collected data were analyzed by FlowJo software (TreeStar, USA) to assess AML engraftment levels in different tissues as determined by the percentage of human CD45+CD33+ cells.
A pilot study was first conducted to determine the potential dosage that can be used to target primary AML graft in NOD/SCID mice. Two AML patient samples (AML 110500 and AML 90191) were tested at 1.25 or 2.5 mg/kg Compound D once daily (QD) or twice daily (BID) intraperitoneally for a total of 4 different dose/schedule groups (FIG. 4). Following pretreatment with sublethal irradiation and anti-CD122 antibody, NOD/SCID mice were intrafemorally transplanted with AML cells that were previously collected from patients and viably frozen. Mice were dosed with Compound D for 2 weeks post transplantation starting on Day 21. […] Percentage of cells positive with myeloid cell marker CD15 were also elevated in both RF and BM of 2.5 mg/kg BID Compound D-dosed mice (FIG. 4, bottom left). […] Based on this pilot study, Compound D was dosed at 2.5 mg/kg BID for the rest of the in vivo experiments.

[2] = molecular target: T1, GSPT1 (Homo sapiens, UniProt P15170+Q96SW2); assay: In vivo GSPT1 expression in xenograft AML model (intracellular FACS); parameters: species or system mice
T1 construct: endogenous in cells; host or cells: primary AML patient cells (peripheral blood mononuclear cells) in short-term suspension culture
T1 sequence (P15170 whole entry): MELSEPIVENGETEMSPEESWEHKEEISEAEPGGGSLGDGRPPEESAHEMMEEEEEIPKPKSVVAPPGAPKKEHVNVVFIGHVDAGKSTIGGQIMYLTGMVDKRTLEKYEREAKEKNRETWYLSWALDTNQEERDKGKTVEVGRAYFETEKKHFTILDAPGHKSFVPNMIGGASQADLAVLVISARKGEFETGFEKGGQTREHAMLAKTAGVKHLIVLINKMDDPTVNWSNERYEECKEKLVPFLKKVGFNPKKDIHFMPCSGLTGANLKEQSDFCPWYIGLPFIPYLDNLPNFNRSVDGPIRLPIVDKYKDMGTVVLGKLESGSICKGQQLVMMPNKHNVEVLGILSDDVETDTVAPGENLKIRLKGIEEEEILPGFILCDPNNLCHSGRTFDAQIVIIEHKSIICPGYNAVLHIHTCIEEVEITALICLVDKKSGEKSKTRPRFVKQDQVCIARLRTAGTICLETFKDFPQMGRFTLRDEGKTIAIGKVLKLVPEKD
T1 sequence (Q96SW2 whole entry): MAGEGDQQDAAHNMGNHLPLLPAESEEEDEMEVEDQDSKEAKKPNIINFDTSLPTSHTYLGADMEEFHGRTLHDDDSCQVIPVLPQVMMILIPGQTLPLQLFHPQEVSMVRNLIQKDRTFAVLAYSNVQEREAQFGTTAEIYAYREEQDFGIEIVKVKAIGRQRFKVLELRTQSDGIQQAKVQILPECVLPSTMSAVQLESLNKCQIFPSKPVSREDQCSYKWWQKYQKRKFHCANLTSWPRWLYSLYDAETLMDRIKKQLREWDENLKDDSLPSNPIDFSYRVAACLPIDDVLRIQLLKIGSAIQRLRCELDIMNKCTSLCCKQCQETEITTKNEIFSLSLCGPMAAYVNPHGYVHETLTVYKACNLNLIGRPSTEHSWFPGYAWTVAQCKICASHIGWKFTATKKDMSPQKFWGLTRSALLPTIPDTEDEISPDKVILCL
T1 sequence (Q16531 whole entry partner): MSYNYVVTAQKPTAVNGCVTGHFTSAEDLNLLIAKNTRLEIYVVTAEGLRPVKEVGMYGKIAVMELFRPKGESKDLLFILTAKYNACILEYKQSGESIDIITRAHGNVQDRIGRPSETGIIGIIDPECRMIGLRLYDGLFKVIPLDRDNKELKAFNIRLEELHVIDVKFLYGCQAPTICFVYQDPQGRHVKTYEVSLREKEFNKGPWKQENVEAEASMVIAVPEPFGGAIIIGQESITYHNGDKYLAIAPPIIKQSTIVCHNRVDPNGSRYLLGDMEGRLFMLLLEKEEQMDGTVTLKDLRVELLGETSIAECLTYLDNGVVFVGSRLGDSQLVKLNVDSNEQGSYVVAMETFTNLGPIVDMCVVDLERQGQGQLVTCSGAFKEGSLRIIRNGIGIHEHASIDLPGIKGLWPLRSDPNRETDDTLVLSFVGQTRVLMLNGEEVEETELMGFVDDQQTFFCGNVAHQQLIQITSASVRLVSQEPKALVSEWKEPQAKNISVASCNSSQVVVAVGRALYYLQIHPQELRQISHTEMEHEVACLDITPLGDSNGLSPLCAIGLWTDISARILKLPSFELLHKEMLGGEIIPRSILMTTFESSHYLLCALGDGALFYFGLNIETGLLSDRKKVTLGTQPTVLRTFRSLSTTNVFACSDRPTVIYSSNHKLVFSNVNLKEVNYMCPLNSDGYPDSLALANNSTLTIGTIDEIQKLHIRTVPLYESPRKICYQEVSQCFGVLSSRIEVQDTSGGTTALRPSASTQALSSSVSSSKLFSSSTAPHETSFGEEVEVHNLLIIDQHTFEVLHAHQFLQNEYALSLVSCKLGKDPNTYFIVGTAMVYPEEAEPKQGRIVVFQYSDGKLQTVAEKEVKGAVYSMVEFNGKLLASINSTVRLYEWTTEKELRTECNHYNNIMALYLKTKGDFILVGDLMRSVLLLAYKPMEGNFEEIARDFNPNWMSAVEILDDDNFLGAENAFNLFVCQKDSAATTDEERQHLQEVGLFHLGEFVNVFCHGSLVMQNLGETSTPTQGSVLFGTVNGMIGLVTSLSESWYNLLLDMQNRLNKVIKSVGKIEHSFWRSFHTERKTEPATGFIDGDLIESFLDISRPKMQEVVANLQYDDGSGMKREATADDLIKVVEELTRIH
Protocol: After 4 weeks of transplantation with AML cells, mice were treated with Compound D at 2.5 mg/kg twice a day for 3 doses totally. Four hours after the last treatment, cells were harvested from both injected RF and non-injected BM of each mouse and were stained with CD45-FITC (BD Biosciences, USA), fixed and permeabilized. Cells were then stained with GSPT1-Alexa Fluor 647 for intracellular FACS to detect the expression of GSPT1 in engrafted leukemic cells.

[3] = molecular target: T1, GSPT1; assay: In vitro GSPT1 degradation in primary AML cells (flow cytometry, MFI); format: cell-based
Protocol: 6.2.3.1. In Vitro Degradation of G1 to S Phase Transition Protein 1 (GSPT1) by Compound D and Apoptosis Assay
Preparation of Test Article Stock Solutions and Dilutions: Compound D was prepared in anhydrous DMSO to make a 1 M stock solution then further diluted to final concentrations of 3, 30, and 100 nM.
(§1) Cell Culture: Materials used for in vitro assays of AML cells included X-VIVO 10 medium supplemented with 15% BIT, and growth factors including 100 ng/mL of stem cell factor, 20 ng/mL of IL-6, 20 ng/mL of G-CSF, 20 ng/mL of IL-3, 100 ng/mL of Flt 3 ligand (each provided by Amgen, USA), 20 ng/mL of GM-CSF (R&D Systems, USA), and 50 ng/mL of thrombopoietin (Kirin Brewery, Japan).
(§2) Assay Procedure: After 4 and 24 hours of in vitro culture with DMSO or Compound D, cells were harvested for GSPT1 expression and apoptosis. Levels of GSPT1 were analyzed by flow cytometry using median fluorescence intensity (MFI) and normalized against DMSO controls. Apoptosis was also analyzed by flow cytometry and measured as percentage of cells which were positive for cleaved caspase 3/7.
(§3) Viably frozen primary leukemia cells were thawed and plated in suspension culture in the Iscove's Modified Dulbecco's Medium plus 15% BIT Serum Substitute (Stem Cell Technology, Canada), supplemented with multiple human growth factors. Compound D was added to the culture at indicated concentrations.
(§4) For GSPT1 expression, intracellular flow cytometry (FACS) was performed at 24 hours in culture by staining cells with GSPT1 conjugated with Alexa Fluor 647. For apoptosis, cells were harvested at 24 hours in culture and stained with Annexin V-PE and 7-aminoactinomycin D (7AAD) (BD Biosciences, USA).

[4] = test system: primary acute myeloid leukemia blasts; assay: In vitro apoptosis (Annexin V) and cell count of primary AML blasts; format: cell-based, human
Protocol: Annexin V-PE apoptosis detection kit (BD Pharmingen, BD Bioscience, USA) was used to assess apoptosis.
as §1, §2, §3, §4

**Q.** For `O=C1CCC(N2Cc3cc(CNC(=O)C(F)(F)c4ccc(Cl)cc4)ccc3C2=O)C(=O)N1` (stereo not drawn) [Compound D, 2-(4-chlorophenyl)-N-((2-(2,6-dioxopiperidin-3-yl)-1-oxoisoindolin-5-yl)methyl)-2,2-difluoroacetamide], which grafted cells ([1]; AML 90191) is on record?
**A.** largely not affected

**Q.** What about the “CD34+ primitive leukemic cells in RF and BM” value ([1]; AML 110500, 2.5 mg/kg BID) of the same compound?
**A.** decreased the most

**Q.** And the “percentage of CD15 positive cells in RF and BM” value ([1]; AML 110500, 2.5 mg/kg BID)?
**A.** elevated

**Q.** What about the “AML grafts in RF and BM” value ([1]; AML 110500, 2.5 mg/kg QD and BID) of the same compound?
**A.** significantly decreased

**Q.** And the AML graft ([1]; AML 110500, 1.25 or 2.5 mg/kg QD or BID IP, 2 weeks, vs vehicle)?
**A.** reduced AML graft of patient sample AML 110500 cells in a dose-dependent manner

**Q.** What about the “levels of GSPT1 in engrafted leukemia cells” value ([2]; 2.5 mg/kg twice a day, 3 doses, 17 samples) of the same compound?
**A.** decreased in RF or BM, or in both RF and BM in the majority of 17 samples tested

**Q.** And the GSPT1 reduction ([2]; Pt120287 and 110555)?
**A.** clear GSPT1 reduction in both RF and BM

**Q.** What about the GSPT1 reduction ([2]; Pt130607 and 150250) of the same compound?
**A.** did not show dramatic GSPT1 reduction

**Q.** And the “GSPT1 degradation, high vs low LSC17 score samples” value ([3]; 100 nM, 24 hours)?
**A.** samples with high LSC17 scores had significantly higher GSPT1 degradation

**Q.** And the “effect on reduction of GSPT1 levels, concentration dependence” value ([3]; 3, 30, 100 nM)?
**A.** concentration dependent

**Q.** And the “GSPT1 expression in AML cells” value ([3]; Section 6.3 samples, 24 hours exposure)?
**A.** decreased GSPT1 expression

**Q.** And the “GSPT1 levels in AML cells” value ([3]; ten primary AML patient samples, 4 and 24 hours, vs control)?
**A.** reduced GSPT1 levels as early as 4 hours post treatment

**Q.** And the apoptosis ([4]; 4 hours)?
**A.** not observed

**Q.** And the “apoptosis, high vs low LSC17 score samples” value ([4]; 24 hours)?
**A.** induced apoptosis at higher levels in samples with high LSC17 scores

**Q.** What about the “induction of apoptosis, number of samples” value ([4]; 24 hours, concentration-dependent) of the same compound?
**A.** observed in 3 of the 10 samples tested

**Q.** And the live cells ([4]; Section 6.3 samples)?
**A.** reduction of live cells

**Q.** And the apoptosis ([4]; Section 6.3 samples, 24 hours)?
**A.** Increased apoptosis

**Q.** And the cell numbers ([4]; with increased concentration, 24 hours)?
**A.** reduced cell numbers for most samples

— patent US20220378773A1, “METHODS FOR TREATING LEUKEMIA AND USE OF A LEUKEMIC STEM CELL SIGNATURE TO PREDICT CLINICAL SENSITIVITY TO THERAPIES” (CELGENE CORPORATION, priority 2019, published 2022)
